In patent US20210363152A1, “AMINOAZINE AMIDES” (Hoffmann-La Roche Inc., priority 2018, published 2021) one finds IC50 data, which are given here for 33 compounds.

The structures appear in SMILES notation.

In the assay the target is T1, Autotaxin enzyme (ATX) (Homo sapiens, UniProt Q13822).
T1 construct: purchased Echelon Biosciences, Inc. E-4000
Kind of assay: In vitro ATX assay (enzymatic ATX inhibition, LPC 14:0 substrate, choline oxidase/HRP absorbance readout). The assay is classed as biochemical. Particulars: 0.3 mM LPC 14:0, 37° C., 4 hours, absorbance 555 nm. Put shortly: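 Human ATX (10 ng/mL as added) in pH 9.0 Tris buffer with NaCl, MgCl2, CoCl2 and Triton X-100 was preincubated with compound for 15 min at 37 °C. LPC 14:0 (0.3 mM final) was then hydrolysed for 4 h at 37 °C. Released choline was detected by choline oxidase/HRP with 4-AAP/TOOS, read after 15 min RT as absorbance at 555 nm, giving banded IC50 values.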
The compound `CCOc1cc(CNc2ncc(C(=O)N3CCC34COC4)cn2)cc(OC(C)C)c1` [Example 159, (2-((3-Ethoxy-5-isopropoxybenzyl)amino)pyrimidin-5-yl) (6-oxa-1-azaspiro[3.3]heptan-1-yl)methanone] displayed an IC50 of less than 100 nM.

Compound `O=C(c1ccc(NC2Cc3ccc(Cl)cc3C2)nc1)N1CCC12COC2` (stereo not drawn) [Example 78, (6-((5-Chloro-2,3-dihydro-1H-inden-2-yl)amino)pyridin-3-yl)(6-oxa-1-azaspiro[3.3]heptan-1-yl)methanone] registered an IC50 of 100 to 1000 nM.

Compound `COC1CN(C(=O)c2cnc(NCc3cc(OC(F)(F)F)cc(C4CC4)c3)nc2)C1` [Example 109, (2-((3-cyclopropyl-5-(trifluoromethoxy)benzyl)ami-no)pyrimidin-5-yl)(3-methoxyazetidin-1-yl)-methanone] gave an IC50 of less than 100 nM.

The compound `CCOc1cc(CNc2ncc(C(=O)N3CCC34COC4)cn2)cc(C2CC2)c1` [Example 67] came in with a concentration for half-maximal inhibition (IC50) of less than 100 nM.

The compound `COC[C@H]1CCN1C(=O)c1cnc(NCc2cc(OC(F)(F)F)cc(C3CC3)c2)nc1` [Example 103, (R)-(2-((3-cyclopropyl-5-(trifluoromethoxy)benzyl)ami-no)pyrimidin-5-yl)(2-(methoxymethyl)azetidin-1-yl)methanone] returned an IC50 of less than 100 nM.

In the case of `O=C(c1cnc(NCc2cc(OC(F)(F)F)cc(C3CC3)c2)nc1)N1CC(F)C1` [Example 85, (2-((3-cyclopropyl-5-(trifluoromethoxy)benzyl)ami-no)pyrimidin-5-yl)(3-fluoroazetidin-1-yl)-methanone], the IC50 was less than 100 nM.

The compound `CC1CC(C)N1C(=O)c1cnc(NCc2cc(OC(F)(F)F)cc(C3CC3)c2)nc1` (stereo not drawn) [Example 93, (2-((3-cyclopropyl-5-(trifluoromethoxy)benzyl)ami-no)pyrimidin-5-yl)(2,4-dimethylazetidin-1-yl)methanone] came in with a concentration for half-maximal inhibition (IC50) of less than 100 nM.

For the compound `CC(C)(O)C1CCN1C(=O)c1cnc(NCc2cc(OC(F)(F)F)cc(C3CC3)c2)nc1` (stereo not drawn) [Example 115, (2-((3-cyclopropyl-5-(trifluoromethoxy)benzyl)ami-no)pyrimidin-5-yl)(2-(2-hydroxypropan-2-yl)azetidin-1-yl)methanone], the IC50 is less than 100 nM.

In the case of `CC(C)(O)C1CN(C(=O)c2cnc(NCc3cc(OC(F)(F)F)cc(C4CC4)c3)nc2)C1` [Example 84, (2-((3-cyclopropyl-5-(trifluoromethoxy)benzyl)ami-no)pyrimidin-5-yl)(3-(2-hydroxypropan-2-yl)azetidin-1-yl)methanone], the IC50 was 100 to 1000 nM.

`O=C(c1ccc(NCc2cccc(OC(F)(F)F)c2)nn1)N1CCC12COC2` [Example 72, 6-Oxa-1-azaspiro[3.3]heptan-1-yl(6-((3-(trifluoromethoxy)benzyl)amino)pyridazin-3-yl)methanone] showed an IC50 of no less than 1000 nM.

Compound `O=C(c1cnc(NCc2cc(OC(F)(F)F)cc(C3CC3)c2)nc1)N1CC2(CCO2)C1` [Example 105, (2-((3-cyclopropyl-5-(trifluoromethoxy)benzyl)ami-no)pyrimidin-5-yl)(1-oxa-6-azaspiro[3.3]heptan-6-yl)methanone] displayed an IC50 of 100 to 1000 nM.

`CC1(O)CC2(CCN2C(=O)c2cnc(N[C@@H]3Cc4ccc(Cl)cc4C3)nc2)C1` (stereo partly drawn) [Example 134, (R)-(2-((5-Chloro-2,3-dihydro-1H-inden-2-yl)amino)pyrimidin-5-yl)(6-hydroxy-6-methyl-1-azaspiro[3.3]heptan-1-yl)methanone] returned an IC50 of less than 100 nM.

In the case of `CS(=O)(=O)c1cccc(CNc2ncc(C(=O)N3CCC34COC4)cn2)c1` [Example 16], the IC50 is no less than 1000 nM.

In turn, `CCOc1cc(CNc2ncc(C(=O)N3CCC34COC4)cn2)cc(OCC)c1` [Example 53] yielded an IC50 of less than 100 nM.

`O=C(c1cnc(NCc2cc(OC(F)(F)F)cc(C3CC3)c2)nc1)N1CCCC12COC2` [Example 96, (2-((3-cyclopropyl-5-(trifluoromethoxy)benzyl)ami-no)pyrimidin-5-yl)(2-oxa-5-azaspiro[3.4]octan-5-yl)methanone] displayed a 50% inhibitory concentration (IC50) of less than 100 nM.

Compound `O=C(c1cnc(NC2Cc3ccc(Cl)cc3C2)nc1)N1CCC1C(F)F` (stereo not drawn) [Example 45] gave an IC50 of less than 100 nM.

In turn, `O=C(c1cnc(NCc2cccc(C(F)F)c2)nc1)N1CCC12COC2` [Example 18] gave an IC50 of no less than 1000 nM.

Take `O=C(c1cnc(NC2Cc3ccc(Br)cc3C2)nc1)N1CCC12COC2` (stereo not drawn) [Example 43]: the IC50 was less than 100 nM.

Compound `O=C(c1cnc(NC2Cc3ccccc3C2)nc1)N1CCC1` [Example 8] yielded an IC50 of 100 to 1000 nM.

Take `O=C(c1cnc(NCc2cc(C3CC3)cc(C3CC3)c2)nc1)N1CCC12COC2` [Example 37]: the IC50 was less than 100 nM.

Regarding `CCOc1cc(CNc2ncc(C(=O)N3CCC3C(C)(C)O)cn2)cc(OC(F)(F)F)c1` (stereo not drawn) [Example 66], the IC50 is less than 100 nM.

Regarding `CC(C)(O)C1CCN1C(=O)c1cnc(NCc2cc(C3CC3)cc(C3CC3)c2)nc1` (stereo not drawn) [Example 65], the IC50 is less than 100 nM.

`O=C(c1cnc(NCc2cccc(Cl)c2)nc1)N1CCC12COC2` [Example 15] came in with an IC50 of no less than 1000 nM.

`O=C(c1cnc(NCc2cc(OC(F)(F)F)cc(C3CC3)c2)nc1)N1CCC12CNC2` [Example 141, (2-((3-Cyclopropyl-5-(trifluoromethoxy)benzyl)amino)pyrimidin-5-yl)(1,6-diazaspiro[3.3]heptan-1-yl)methanone] yielded an IC50 of less than 100 nM.

In turn, `CC(C)c1cc(CNc2ncc(C(=O)N3CCC3C)cn2)cc(OC(F)(F)F)c1` (single isomer, unassigned) [Example 69, (2-((3-Isopropyl-5-(trifluoromethoxy)benzyl)amino)pyrimidin-5-yl)(2-methylazetidin-1-yl)methanone] yielded an IC50 of less than 100 nM.

Turning to `O=C(c1cnc(NCc2cc(OC(F)(F)F)cc(C3CC3)c2)nc1)N1CCC12CCOC2` (single isomer, unassigned) [Example 117, (2-((3-Cyclopropyl-5-(trifluoromethoxy)-benzyl)amino)pyrimidin-5-yl)(6-oxa-1-azaspiro[3.4]octan-1-yl) methanone], the IC50 is less than 100 nM.

With `O=C(c1cnc(NCc2cc(F)cc(OC(F)(F)F)c2)nc1)N1CCC12COC2` [Example 26], the IC50 fell in the range of 100 to 1000 nM.

`O=C(c1cnc(NC2Cc3ccc(Cl)cc3C2)nc1)N1CCC12COC2` (stereo not drawn) [Example 33] came in with an IC50 of less than 100 nM.

Take `COc1cc(CNc2ncc(C(=O)N3CCC3C)cn2)cc(OC)c1` (stereo not drawn) [Example 11]: the IC50 is no less than 1000 nM.

For the compound `CCc1cc(CNc2ncc(C(=O)N3CCC34COC4)cn2)cc(OC(F)(F)F)c1` [Example 123, (2-((3-Ethyl-5-(trifluoromethoxy)benzyl)amino)pyrimidin-5-yl)(6-oxa-1-azaspiro[3.3]heptan-1-yl)methanone], the IC50 is less than 100 nM.

`CC1CCN1C(=O)c1cnc(N[C@@H]2Cc3ccc(Cl)cc3C2)nc1` (stereo partly drawn) [Example 133, (2-(((R)-5-Chloro-2,3-dihydro-1H-inden-2-yl)amino)pyrimidin-5-yl)(2-methylazetidin-1-yl)methanone]: the IC50 is less than 100 nM.

On to `O=C(c1cnc(NCc2cccc(OC(F)(F)F)c2)nc1)N1CCC12COC2` [Example 2], for which the half-inhibitory concentration (IC50) is 100 to 1000 nM.

Turning to `O=C(c1cnc(NC2Cc3ccc(Cl)cc3C2)nc1)N1CCC12CCOCC2` (stereo not drawn) [Example 47], the IC50 is less than 100 nM.

In general, IC50 refers to the concentration needed to halve the response being measured.
